Laboratory results: patent US10918640B2, “Azetidine derivatives” (Vernalis (R&D) Ltd., priority 2008, dated 2021)

Test system: carrageenan-induced thermal hypersensitivity
Test: Rat carrageenan induced thermal hyperalgesia model of inflammatory pain
Assay type: in vivo
Description: Rat Carrageenan Induced Thermal Hyperalgesia Model of Inflammatory Pain.
Male Wistar rats were assessed for thermal pain sensitivity by applying a focused light beam onto the hind paws and recording the time to paw withdrawal, before and after local intraplantar administration of carrageenan. After 3 h. thermal pain sensitivity was reassessed in treated and untreated hind paws prior to dosing with test compound or vehicle. Indomethacin was administered as a positive control.
Male Sprague Dawley rats were tail-marked, and acclimatized to the plantar boxes on 3 separate occasions (6, 5 and 1 day prior to the test day) for at least 5 min on each occasion. […] The latency to withdraw both left and right hindpaws from the heat source was determined on 2 occasions (3 min apart). The mean across the 2 challenges was recorded as the baseline for each animal. Rats 18 and 30 were not used in the study as they had very high baseline readings, and they were replaced by 61 and 63. […]
For example, the compound of Example 13 above was tested as follows: Rats were dosed with intraplantar carrageenan at t=0; the compound of Example 13 (1, 3 & 10 mg/kg po) or vehicle (5% EtOH: 95% (1% methylcellulose in water) at t=2 h; indomethacin (10 mg/kg ip) or vehicle at t=2.5 h and thermal sensitivity was measured at t=3 h. Thus all rats received both oral and ip dosing.

## O=C(Nc1cccnn1)N1CC(Oc2ccc(-c3ccccc3)cn2)C1 [Example 13, 3-(5-Phenyl-pyridin-2-yloxy)-azetidine-1-carboxylic acid pyridazin-3-ylamide]
1, 3, 10 mg/kg p.o., rat
  pain sensitivity relative to normal levels: did not reduce pain sensitivity to below normal levels
At 3 and 10 mg/kg doses p.o., one way ANOVA followed by Newman-Keuls post hoc tests
  statistical significance of inhibition cf. vehicle/carrageenan group: reached statistical significance
